These results are taken from patent US4348410A, “Cyclohexane carboxylic acid derivatives” (Nippon Chemiphar Co., Ltd., priority 1979, dated 1982).

Test [1] has as its target chymotrypsin (Bos taurus, UniProt P00766). The experiment in a line: Inhibitory effects on chymotrypsin (hydrolysis of N-acetyl-L-tyrosine ethyl ester). It is filed as biochemical. The settings on record: 37° C., 10 minutes; concentration not given. As for the experimental part: The compounds of the formula (I) have excellent inhibitory effects on protease. The inhibitory effects were determined by the following methods: Inhibitory effects on the compounds of chymotrypsin were determined according to the method described by M. […] In particular, inhibitory effects of the compounds on hydrolysis of N-acetyl-L-tyrosine ethyl ester by chymotrypsin were examined (incubated at 37° C. for 10 minutes).

Test [2] concerns acetic acid ulcers. In words: Acetic acid ulcers. It is filed as in vivo, Male Sprague-Dawley strain rats. The following applies: for Ulcer Grade 1 (number of rats): ulcer area 0-10 mm^2; for Ulcer Grade 2 (number of rats): ulcer area 11-20 mm^2; for Ulcer Grade 3 (number of rats): ulcer area 21-30 mm^2; for Ulcer Grade 4 (number of rats): ulcer area 31-40 mm^2; for Ulcer Grade 5 (number of rats): ulcer area >40 mm^2. As to the method: Male Sprague-Dawley strain rats, weighing about 200 g were used. Under ether anesthesia 10% acetic acid solution (0.05 ml) was injected carefully between the serous membrane and the muscle near the pylorus, and the abdomen was closed. Thereafter, the animals were maintained under conditions and administered 1 ml/100 g of each test drug dissolved or suspended in 0.5% carboxymethylcellulose solution p.o. daily×10 starting from the next day of the operation. On the 11th day, the rats were sacrificed under ether anesthesia, and the stomachs were removed. The area of the ulcer was measured and graded into 5 degrees as an ulcer index according to the following method: […]

`N=C(N)NC[C@H]1CC[C@H](C(=O)Oc2ccccc2C(=O)OCc2ccccc2)CC1` [Compound 1]: in test [1], the “Inhibition (%) Chymotrypsin” value was found to be 100%. In test [2] (125 mg/kg p.o. daily×10), the “Ulcer Grade 1 (number of rats)” value came to 15, the “Ulcer Grade 2 (number of rats)” value worked out at 1, the “Ulcer Grade 3 (number of rats)” value stood at 2 and the “Ulcer Grade 4 (number of rats)” value is 0. Also, the “Ulcer Grade 5 (number of rats)” value in test [2] (125 mg/kg p.o. daily×10) came to 0. In addition, in test [2] (250 mg/kg p.o. daily×10), the “Ulcer Grade 1 (number of rats)” value is on record as 14, the “Ulcer Grade 2 (number of rats)” value stood at 1, the “Ulcer Grade 3 (number of rats)” value is 1 and the “Ulcer Grade 4 (number of rats)” value came out at 0. The “Ulcer Grade 5 (number of rats)” value in test [2] (250 mg/kg p.o. daily×10) is given as 0. Moreover, in test [2] (500 mg/kg p.o. daily×10), the “Ulcer Grade 1 (number of rats)” value came to 16, the “Ulcer Grade 2 (number of rats)” value is on record as 2, the “Ulcer Grade 3 (number of rats)” value was determined as 0 and the “Ulcer Grade 4 (number of rats)” value was determined as 0. The “Ulcer Grade 5 (number of rats)” value in test [2] (500 mg/kg p.o. daily×10) worked out at 0.
